Assay results: patent EP0792647A1, “Porphyrins as urokinase-type plasminogen activator receptor antagonists” (BOEHRINGER MANNHEIM GMBH, priority 1996, dated 1997)
pIC50: −log10 of the molar value. Where a name gives a salt, the structure may show the parent alone. Read-outs that look alike come from different tables or passages of the source.

Columns and labels:
[1] = biological target: T1, human urokinase (uPA) binding to its specific receptor (uPAR) (Homo sapiens, UniProt Q03405); experiment: ELISA-Test: inhibition of uPA binding to its specific receptor (uPAR); conditions: synthetic or commercially available porphyrins; for IC50: read-out: IC50 (µg/ml) ELISA (converted)
T1 sequence (Q03405 23-305 limits assumed): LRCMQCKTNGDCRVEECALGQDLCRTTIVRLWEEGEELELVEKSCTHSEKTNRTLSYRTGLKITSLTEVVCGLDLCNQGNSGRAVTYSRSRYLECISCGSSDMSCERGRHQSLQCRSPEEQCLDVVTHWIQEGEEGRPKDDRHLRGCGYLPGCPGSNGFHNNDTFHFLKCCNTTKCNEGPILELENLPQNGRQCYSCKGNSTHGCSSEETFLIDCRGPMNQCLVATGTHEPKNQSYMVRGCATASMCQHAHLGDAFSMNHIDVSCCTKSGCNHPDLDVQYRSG
Experimental: This test is described by P. Rettenerger et al. in Biol. Chem. Hoppe-Seyler 376, pp. 587-594 (1995). An alternate ELISA-test is described in Behrendt et al., Meth. Enzymol. 233 (1993), 207-222. • ELISA-Test: Inhibition of human urokinase (uPA) binding to its specific receptor (uPAR). The assays are performed in Microtiterplates (96 wells). The following solutions are used: • washing buffer: PBS-buffer (w/o Mg^2+Ca^2+) + 0,05% Tween 20; uPAR-solution 100 ng/ml (10 ng/well) • blocking solution 2% skimmed milk powder (Merck) in washing buffer • incubation buffer 0.5% skimmed milk powder in PBS uPA-solution 10 ng/well detection solutions (per microfilter plate): • (1) 6 ml (100 mM Tris-CI pH 7.5 + 0.15% Tween 80) + 1.5 ml (10 µg) Plasminogen in aqua bidest. • (2) 6 ml (100 mM Tris-CI pH 7.5 + 0.15% Tween 80) + 1.5 ml (7.5 mg) Chromozyme PL in aqua bidest.
The detection solution must be continously stirred.
Testing substances: the testing substances are solved in DMSO. They are used in the test system with a highest concentration of 100 µg/ml. Dissolutions are prepared using PBS.
Three controlls are performed: • a) positive controll: using 2% DMSO in PBS • b) negative controll: assay w/o receptor • c) inhibition controll: Inhibition (IC95 at 0.25 mg/ml) with Dextranesulfate (MW = 500.000)
Each well is incubated by 10 ng uPAR for 1 hour at roomtemperature (RT). After washing once each well is incubated for half an hour (37°C) with 200 µl/well blocking solution. After triple washing testing substance solution or controll solutions are added (50 µl/well and incubated for 15 min at RT. An additional 50 µl of uPA solution (10 ng in incubation buffer) are added. After 1 hour at RT a triple washing is performed.
Incubation 70 µl each of solution (1) and (2) at RT. After 20 min. a yellow color will be visible (the positive control reads an extinction of 1 after 40 min.). The detection is performed at […] (reference is […]) using a Dynatech MR 7000 ELISA reader.
To obtain the percentage of inhibition the following formula is used: % Inhibtion = 100-100* (Extinction (Test) - Extinction (Neg. contr.)/(Extinction (Pos. contr.) - Extinction (Neg. contr.)) [formula]

[2] = biological target: Urokinase (uPA not bound to uPAR) (Homo sapiens, UniProt P00749); experiment: ENZ: Urokinase-activity-assay (uPA not bound to uPAR); type: biochemical; conditions: assay without uPAR; for IC50: read-out: IC50 (µg/ml) ENZ (converted)
Experimental: ENZ: Urokinase-activity-assay (uPA not bound to uPAR)
This assay is identical to the uPA/uPAR assay of example one except that no uPAR is used, i.e. no incubation of the wells with uPAR and the following washing steps is necessary.

[3] = biological target: T2, NIH 3T3 cells transfected with a human urokinase receptor (Homo sapiens, UniProt Q03405); experiment: Cellular assay: uPA binding to NIH 3T3 cells transfected with a human urokinase receptor; type: cell-based; conditions: for IC50: read-out: IC50 (µg/ml) cells (converted)
T2 construct: expressed in transfected cells; host or cells: NIH 3T3 (clone NIH3T3 CH1 (15.10)), mouse fibroblasts
T2 sequence (Q03405 23-305 limits assumed): as above
Experimental: An enzyme test was used to detect inhibtion of urokinase activity and a cellular assay using NIH 3T3 (from ATCC) cells transfected with a human urokinase receptor was obtained.
Medium: • DMEM (MEM dulbecco/Boehringer) with NaHCO3 and 4.5 g/l Glucose
add: • 10% FCS (Seromed) • 2 mM L-Glutamine • 1 mM Na-Pyruvat • 100 U/ml Penicillin • 100 µg/ml Streptomycin • 1 µg/ml G 418 (Geneticin) • sterilize all supplements by filtration
Take a 1 mg/ml fibronectin solution (in sterile water) and dilute an appropriate aligot with sterile PBS to a final concentration of 50 µg/ml. Coat the 96-well plate with 200 µl//well. Incubate for about 45 min. at room temperature. Remove the solution carefully. The wells should not be allowed to dry, use immediately. Prepare the cells during the 45 min. of incubation with fibronectin. NIH3T3 CH1 (15.10)-cells are grown to confluency in T 175 cell-culture flasks in the above described medium. Remove the media and rinse the cells with PBS, add 2 ml of Trypsin / EDTA solution for cell detachment. Stop trypsin activity by addition of approx. 6 ml medium . Take an aliquot of the cells to determine the cellnumber and adjust the celldensity to 8 x 10^5/ml with medium. Take the fibronectin coated 96 well palate and spread 100 µl cell-suspension/well, let the cells grow to confluency over night.
Discard the medium carefully and wash the cells by addition of 200 µl medium (without supplements) / well and again discarding the medium. Add 200 µl 2% skimmed milk in medium. Incubate for 30 minutes at roomtemperatur. Wash twice with 200 µl medium (w supplements) / well carefully (to remove unbound skimmed milk). Preincubate with 50 µl testcompound diluted in medium, respectively medium only for the controls for 20 minutes; add 50 µl uPA-solution [200 ng/ml]. Incubate for 60 minutes at roomtemperature; wash carefully for 3 times with medium (200 µl/well). […] Measure at a wavelength of 405 nm (reference: 490 nm) with an ELISA-Reader. The yellow colour will appear after about 45 mins.

[4] = biological target: T1, human urokinase (uPA) binding to its specific receptor (uPAR); experiment: ELISA-Test: inhibition of uPA binding to its specific receptor (uPAR)

Molecule | IC50 [1] [nM] | IC50 [2] [nM] | also measured
O=C(O)c1ccc(-c2c3nc(c(-c4ccc(C(=O)O)cc4)c4ccc([nH]4)c(-c4ccc(C(=O)O)cc4)c4nc(c(-c5ccc(C(=O)O)cc5)c5ccc2[nH]5)C=C4)C=C3)cc1 [meso-tetra-(4-Carboxyphenyl)-Porphine] | 266 | 860 | IC50 ([3]; NIH3T3 CH1 (15.10)-cells): 30600 nM
CCOC(=O)CCC1=C(C)c2cc3[nH]c(cc4nc(cc5[nH]c(cc1n2)c(C)c5CCC(=O)OCC)C(CCC(=O)OCC)=C4C)c(C)c3CCC(=O)OCC [Coproporphyrin III tetraethylester] | 678 | 95200 | IC50 ([3]; NIH3T3 CH1 (15.10)-cells): 124000 nM
COC(=O)CCC1=C(C)c2cc3[nH]c(cc4nc(cc5[nH]c(cc1n2)c(CCC(=O)OC)c5C)C(S(=O)(=O)O)=C4C)c(S(=O)(=O)O)c3C [Deuteroporphyrin IX 2,4 Disulfonic Acid dimethylester] | 1820 | 3510 | –
Hematoporphyrin D | – | – | IC50 (µg/ml) ELISA [1]: 0,52 µg/ml; IC50 (µg/ml) ENZ [2]: 3,1 µg/ml; IC50 (µg/ml) cells ([3]; NIH3T3 CH1 (15.10)-cells): 1,4 µg/ml
C=CC1=C(C)C(=Cc2[nH]c(Cc3[nH]c(C=C4NC(=O)C(C)=C4C=C)c(C)c3CCC(=O)O)c(CCC(=O)O)c2C)NC1=O [Bilirubine] | – | – | inhibition at 300 µg/mL [4]: 11%
CC1=C(CCC(=O)O)c2cc3[nH]c(cc4nc(cc5[nH]c(cc1n2)c(C)c5C(O)CO)C(C)=C4C(O)CO)c(C)c3CCC(=O)O (centres unmarked) [Deuteroporphyrin IX 2,4-Bis Glycol] | 8400 | 4280 | –
N-Methyl Protoporphyrin IX | – | – | IC50 (µg/ml) ELISA [1]: 0,4 µg/ml
Al Phtalocyanine Tetrasulfonate | – | – | IC50 (µg/ml) ELISA [1]: 3,7 µg/ml; IC50 (µg/ml) ENZ [2]: 2,3 µg/ml
CCC1=C(C)c2cc3[nH]c(cc4nc(cc5[nH]c(cc1n2)c(C)c5CCC(=O)O)C(CCC(=O)O)=C4C)c(C)c3CC [Mesoporphyrin IX Dihydrochloride] | 406 | 2120 | pIC50 [3]: 5.56
C=Cc1c(C)c2cc3nc(c(CC(=O)O)c4[nH]c(cc5nc(cc1[nH]2)C(C)=C5CC)c(C)c4C(=O)O)[C@@H](CCC(=O)O)[C@@H]3C [Chlorin e6] | 520 | 2350 | IC50 ([3]; NIH3T3 CH1 (15.10)-cells): 12900 nM
O=S(=O)(O)c1ccc(-c2c3nc(c(-c4ccc(S(=O)(=O)O)cc4)c4ccc([nH]4)c(-c4ccc(S(=O)(=O)O)cc4)c4nc(c(-c5ccc(S(=O)(=O)O)cc5)c5ccc2[nH]5)C=C4)C=C3)cc1 [meso-tetra-(4-Sulfonatophenyl)-Porphine Dihydrochlorid] | 214 | 674 | pIC50 ([3]; read-out: IC50 (µg/ml) cells, NIH3T3 CH1 (15.10)-cells): 4.67
